Tests used:
aromatase [1] = conditions: cited from earlier work
[2] = for appearance of labeled metabolites in plasma: compared with N-1 (11C-1)
[3] = Measurement of free fraction in plasma; conditions: baboon plasma, room temperature, 10 min incubation
aromatase [4] = experiment: PET studies in baboon brain; conditions: for brain penetration / uptake in amygdala and preoptic area (PET images): baboon brain; for brain penetration: at 2.5 min; for uptake in amygdala and preoptic area (PET images): images summed 15-90 min after injection
Measurement of log D = conditions: 1-octanol / phosphate buffered saline pH 7.4

Structure (SMILES): Cn1nnc2ccc([C@@H](c3ccc(Cl)cc3)n3cncn3)cc21 [(R)-vorozole]
- activity of enantiomer at aromatase (aromatase [1]): inactive

Structure (SMILES): [11CH3]n1nc2ccc([C@H](c3ccc(Cl)cc3)n3cncn3)cc2n1 [^11C-2]
- disappearance of the parent labeled compound from plasma ([2]; baboon plasma): rapid rate of disappearance
- appearance of labeled metabolites in plasma ([2]; baboon plasma): very rapid appearance of labeled metabolites
- Percent unbound in plasma (n=2) [3]: 4.6%
- brain penetration (aromatase [4]): 0.02-0.03 %ID/cc
- uptake in amygdala and preoptic area (PET images) (aromatase [4]): no specific uptake in amygdala and preoptic area
- Log D at pH 7.4 (n=4) (Measurement of log D): 2.9

Structure (SMILES): [11CH3]n1nnc2cc(C(c3ccc(Cl)cc3)n3cncn3)ccc21 (centres unmarked) [^11C-3]
- appearance of labeled metabolites in plasma ([2]; baboon plasma): very rapid appearance of labeled metabolites
- area under curve (AUC) in plasma normalized to the injected dose ([2]; baboon, over 90 minutes): similar
- Percent unbound in plasma (n=2) [3]: 8.1%
- brain penetration (aromatase [4]): 0.02-0.03 %ID/cc
- uptake in amygdala and preoptic area (PET images) (aromatase [4]): no specific uptake in amygdala and preoptic area
- Log D at pH 7.4 (n=4) (Measurement of log D): 2.5

Structure (SMILES): N#Cc1ccc(C(c2ccc(C#N)cc2)n2cncn2)cc1 [letrozole, reference compound]
- effect of pretreatment on [N-methyl-11C]vorozole (11C-1) accumulation in brain (aromatase [4]; baboon, blocking dose 0.1 mg/kg, 5 min prior, all brain regions examined): reduced
